≈ marks a conversion by molar mass, not a printed value. Calls of active or inactive are those of the source. No cut-off for these calls is given here.

The subject of data set [1] is Staphylococcus aureus. Description: Induction of membrane permeabilization in Staphylococcus aureus FDA 209P assessed as decrease in cell viability. In kind it is functional, organism-based.
Data set [2] has as its system Staphylococcus aureus. Briefly: Antibacterial activity against Staphylococcus aureus FDA 209P assessed as bacterial growth inhibition after 20 hrs by liquid microdilution method. In kind it is functional. Background: Broth dilution looks for growth in wells or tubes with falling amounts of substance.
Data set [3] relates to Bacillus subtilis. Briefly: Antibacterial activity against Bacillus subtilis 168 assessed as bacterial growth inhibition after 20 hrs by liquid microdilution method. The format is functional. The conditions noted are these: Bacillus subtilis, 168, 20 h.
Data set [4] relates to Escherichia coli. Briefly: Antibacterial activity against Escherichia coli K12 W3110 assessed as bacterial growth inhibition after 20 hrs by liquid microdilution method. In kind it is functional. Conditions: K-12 substr. W3110, 20 h.
Data set [5] has as its system Salmonella typhimurium. Briefly: Antibacterial activity against Salmonella typhimurium LT2 assessed as bacterial growth inhibition after 20 hrs by liquid microdilution method. In kind it is functional, Salmonella enterica subsp. enterica serovar Typhimurium. The conditions noted are these: Salmonella enterica, LT2, 20 h.
The subject of data set [6] is Pseudomonas aeruginosa. Description: Antibacterial activity against Pseudomonas aeruginosa PAO1 assessed as bacterial growth inhibition after 20 hrs by liquid microdilution method. In kind it is functional. The conditions noted are these: PAO1, 20 h.
For data set [7], the system named is Staphylococcus aureus. Briefly: Induction of membrane permeabilization in Staphylococcus aureus FDA 209P assessed as increase in potassium efflux. The format is functional, organism-based.
The subject of data set [8] is Escherichia coli. Briefly: Induction of membrane permeabilization in Escherichia coli K12 W3110 assessed as increase in potassium efflux. The format is functional, organism-based.
The nature of data set [9]: Haemolytic activity in rabbit RBCs at 50 uM relative to control. The conditions noted are these: rabbit red blood cells (erythrocytes), read-out: Activity. In kind it is ADME, cell-based, Oryctolagus cuniculus, Erythrocyte.
The nature of data set [10]: Partition coefficient, log P of compound. In kind it is physicochemical. Conditions: octanol/water.
Data set [11] relates to Escherichia coli. Description: Antimicrobial activity against ESBL-producing Escherichia coli assessed as bacterial growth inhibition after 20 hrs by liquid microdilution method. The format is functional.
Data set [12] has as its system Escherichia coli. Description: Antimicrobial activity against carbapenem-resistant Escherichia coli assessed as bacterial growth inhibition after 20 hrs by liquid microdilution method. The format is functional.
The test system of data set [13] is Pseudomonas aeruginosa. Briefly: Antibacterial activity against carbapenem-reistant Pseudomonas aeruginosa PAO1 assessed as bacterial growth inhibition after 20 hrs by liquid microdilution method. The conditions noted are these: PAO1, 20 h. The format is functional.
Data set [14] concerns Escherichia coli. Briefly: Induction of membrane permeabilization in Escherichia coli K12 W3110 assessed as decrease in cell viability. The format is functional, organism-based.
Data set [15] has as its system Staphylococcus aureus. Briefly: Antibacterial activity against Staphylococcus aureus FDA 209P at sub-MIC treated over 2 serial passages by resistant development assay. The format is functional.
The test system of data set [16] is Staphylococcus aureus. Briefly: Antibacterial activity against Staphylococcus aureus FDA 209P at sub-MIC treated over 4 serial passages by resistant development assay. In kind it is functional.
Data set [17] relates to Escherichia coli. Description: Antimicrobial activity against […] at sub-MIC treated by resistant development assay. The format is functional. The conditions noted are these: K-12 substr. W3110.
Data set [18] concerns Staphylococcus aureus. Description: Antibacterial activity against Staphylococcus aureus FDA 209P at sub-MIC by resistant development assay. The format is functional.
The subject of data set [19] is Erythrocyte. Briefly: Haemolytic activity in rabbit RBCs at 10 times MIC. The format is ADME, cell-based, Oryctolagus cuniculus.
Data set [20] concerns Staphylococcus aureus. Description: Antibacterial activity against Staphylococcus aureus FDA 209P at sub-MIC treated over 11 serial passages by resistant development assay. The format is functional.

One may read the MIC as the lowest concentration found to suppress growth. As a reminder, the logP is the decadic logarithm of the partition coefficient of the neutral form, usually between octanol and water. `CCC(=O)O[C@@H]1[C@@H](OC(=O)CC)[C@H]2O[C@H]3[C@H](OC(=O)CC)[C@@H](OC(=O)CC)[C@@H](O[C@H]4[C@H](OC(=O)CC)[C@@H](OC(=O)CC)[C@@H](O[C@H]5[C@H](OC(=O)CC)[C@@H](OC(=O)CC)[C@@H](O[C@H]6[C@H](OC(=O)CC)[C@@H](OC(=O)CC)[C@@H](O[C@H]7[C@H](OC(=O)CC)[C@@H](OC(=O)CC)[C@@H](O[C@H]8[C@H](OC(=O)CC)[C@@H](OC(=O)CC)[C@@H](O[C@H]9[C@H](OC(=O)CC)[C@@H](OC(=O)CC)[C@@H](O[C@@H]1[C@@H](Cn1cc(CN)nn1)O2)O[C@@H]9Cn1cc(CN)nn1)O[C@@H]8Cn1cc(CN)nn1)O[C@@H]7Cn1cc(CN)nn1)O[C@@H]6Cn1cc(CN)nn1)O[C@@H]5Cn1cc(CN)nn1)O[C@@H]4Cn1cc(CN)nn1)O[C@@H]3Cn1cc(CN)nn1`: the result in data set [1], in data set [7], in data set [8] and in data set [14] was Active. Further, the MIC in data set [2] came to 9 µM (≈ 25.5 µg/mL); in data set [3], 2 µM (≈ 5.67 µg/mL); in data set [4], 4 µM (≈ 11.3 µg/mL); in data set [5] it was 9 µM (≈ 25.5 µg/mL); in data set [6], 4 µM (≈ 11.3 µg/mL); in data set [11] it was 4 µM (≈ 11.3 µg/mL). The MIC in data set [12] and in data set [13] was 9 µM (≈ 25.5 µg/mL) throughout. Besides, the hemolysis at 50 µM in data set [9] amounted to 17%. Moreover, in [10], the logP is -0.89.
On to `C[C@@H]1O[C@@H]1P(=O)(O)O` [FOSFOMYCIN], for which the MIC in data set [15] is 14 µM (≈ 1.93 µg/mL); in data set [16], greater than 927 µM; in data set [17] it was 58 to 927 µM (≈ 8.01 to 128 µg/mL).
As for `CCn1cc(C(=O)O)c(=O)c2cc(F)c(N3CCNCC3)cc21` [NORFLOXACIN], the MIC in data set [17] is 0.2 to 6 µM (≈ 0.0639 to 1.92 µg/mL); in [18] it was 0.8 to 3 µM (≈ 0.255 to 0.958 µg/mL).
For the compound `CCC(=O)O[C@@H]1[C@@H](OC(=O)CC)[C@H]2O[C@H]3[C@H](OC(=O)CC)[C@@H](OC(=O)CC)[C@@H](O[C@H]4[C@H](OC(=O)CC)[C@@H](OC(=O)CC)[C@@H](O[C@H]5[C@H](OC(=O)CC)[C@@H](OC(=O)CC)[C@@H](O[C@H]6[C@H](OC(=O)CC)[C@@H](OC(=O)CC)[C@@H](O[C@H]7[C@H](OC(=O)CC)[C@@H](OC(=O)CC)[C@@H](O[C@@H]1[C@@H](Cn1cc(CN)nn1)O2)O[C@@H]7Cn1cc(CN)nn1)O[C@@H]6Cn1cc(CN)nn1)O[C@@H]5Cn1cc(CN)nn1)O[C@@H]4Cn1cc(CN)nn1)O[C@@H]3Cn1cc(CN)nn1`, the Activity result in data set [19] is given as “Non-Toxic”. Also, the minimal inhibitory concentration (MIC) in data set [2] came to 6 µM (≈ 12.8 µg/mL); in data set [3], 3 µM (≈ 6.38 µg/mL); in [4], 3 µM (≈ 6.38 µg/mL); in data set [5] it was 6 µM (≈ 12.8 µg/mL); in data set [6], 3 µM (≈ 6.38 µg/mL); in data set [11], 5 µM (≈ 10.6 µg/mL). Also, the minimum inhibitory concentration (MIC) in [12] is 5 µM (≈ 10.6 µg/mL); in [13] it was 5 µM (≈ 10.6 µg/mL); in data set [20] it was 6 µM (≈ 12.8 µg/mL); in data set [17] it was 3 to 6 µM (≈ 6.38 to 12.8 µg/mL). In addition, in data set [9], the hemolysis at 50 µM turned out to be 3%. Besides, the logP in data set [10] was -0.89.

Source of the values: ChEMBL document CHEMBL4334431, “Gramicidin S-inspired antimicrobial cyclodextrin to disrupt gram-negative and gram-positive bacterial membranes” (Medchemcomm, 2019).
